Legend:
[1] = system: circulating factors; assay: Mouse L308 Array screen of plasma from naive mice treated with FOLFOX or Paclitaxel chemotherapy; assay type: in vivo; details: circulating level, BALB/c mice
Protocol: Determination of proteins expression using protein arrays was performed according to the manufacturer's instructions.
To identify host-derived circulating factors whose levels change in response to chemotherapy, a protein array-based screens were performed using plasma from naïve (non-tumor bearing) mice that were treated with different chemotherapy types. The use of naïve mice allows identification of factors specifically generated by the host in response to chemotherapy, independent of tumor presence. […] Control mice (n=5) were injected with vehicle control. Twenty-four hours after treatment administration, mice were sacrificed, plasma was isolated and pooled per group. […] These factors, and their respective fold changes in response to each chemotherapy type (Paclitaxel™, FOLFOX™), are listed in Table 5.

[2] = system: IL-6; assay: IL-6 quantification in plasma by ELISA after DOX; assay type: in vivo; details: naive female BALB/c mice, 240 μg DOX IP, one day after injection
Protocol: For determination of IL-6 expression following DOX treatment, 7 weeks old naïve female BALB/c mice (n=3) were IP injected with 240 μg DOX. Control mice (n=3) were left untreated. One day after the injection, mice were bled by cardiac puncture and blood was collected into EDTA-coated tubes. […] Supernatants (representing the plasma samples) were collected and the level of IL-6 in the plasma was determined by ELISA (IL-6 Quantikine ELISA Kit, R&D systems) according to the manufacturer's instruction.
To investigate the effect of chemotherapy on the level of IL-6 in the circulation, naïve 7-weeks old female BALB/c mice were IP injected with 240 μg DOX (doxorubicin, Adriamycin™) or were left untreated (control mice). One day after the injection, the level of IL-6 in the plasma was determined by ELISA.

SMILES: CC(=O)O[C@H]1C(=O)[C@@]2(C)[C@H]([C@H](OC(=O)c3ccccc3)[C@]3(O)C[C@H](OC(=O)[C@H](O)[C@@H](NC(=O)c4ccccc4)c4ccccc4)C(C)=C1C3(C)C)[C@]1(OC(C)=O)CO[C@@H]1C[C@@H]2O [Paclitaxel, paclitaxel]
- Fold change CRG-2 (chemotherapy-treated vs control) [1]: >10 fold
- Fold change CRP (chemotherapy-treated vs control) [1]: >10 fold
- Fold change CXCL14/BRAK (chemotherapy-treated vs control) [1]: 2.6 fold
- Fold change CXCL16 (chemotherapy-treated vs control) [1]: 4.4 fold
- Fold change CXCR2/IL-8 RB (chemotherapy-treated vs control) [1]: 2.0 fold
- Fold change CXCR6 (chemotherapy-treated vs control) [1]: 3.6 fold
- Fold change Cardiotrophin-1 (chemotherapy-treated vs control) [1]: >10 fold
- Fold change Cripto (chemotherapy-treated vs control) [1]: >10 fold
- Fold change Dkk-3 (chemotherapy-treated vs control) [1]: >10 fold
- Fold change Endocan (chemotherapy-treated vs control) [1]: 4.4 fold
- Fold change Endostatin (chemotherapy-treated vs control) [1]: 4.9 fold
- Fold change Eotaxin-2 (chemotherapy-treated vs control) [1]: 3.4 fold
- Fold change Erythropoietin (EPO) (chemotherapy-treated vs control) [1]: 3.9 fold
- Fold change Frizzled-6 (chemotherapy-treated vs control) [1]: 2.2 fold
- Fold change Frizzled-7 (chemotherapy-treated vs control) [1]: 6.1 fold
- Fold change GITR (chemotherapy-treated vs control) [1]: >10 fold
- Fold change GM-CSF (chemotherapy-treated vs control) [1]: 2.4 fold
- Fold change IGFBP-1 (chemotherapy-treated vs control) [1]: >10 fold
- Fold change IL-1 R4/ST2 (chemotherapy-treated vs control) [1]: 1.9 fold
- Fold change IL-1 alpha (chemotherapy-treated vs control) [1]: >10 fold
- Fold change IL-3 R alpha (chemotherapy-treated vs control) [1]: >10 fold
- Fold change IL-7 R alpha (chemotherapy-treated vs control) [1]: 8.8 fold
- Fold change IL-9 R (chemotherapy-treated vs control) [1]: 5.7 fold
- Fold change IL-12 p70 (chemotherapy-treated vs control) [1]: >10 fold
- Fold change IL-15 (chemotherapy-treated vs control) [1]: 2.5 fold
- Fold change IL-15 R alpha (chemotherapy-treated vs control) [1]: 3.4 fold
- Fold change IL-17R (chemotherapy-treated vs control) [1]: 2.6 fold
- Fold change IL-18 R alpha/IL-1 R5 (chemotherapy-treated vs control) [1]: >10 fold
- Fold change IL-20 (chemotherapy-treated vs control) [1]: >10 fold
- Fold change IL-23 R (chemotherapy-treated vs control) [1]: 1.8 fold
- Fold change IL-27 (chemotherapy-treated vs control) [1]: 2.0 fold
- Fold change IL-28/IFN-lambda (chemotherapy-treated vs control) [1]: 5.4 fold
- Fold change IL-31 (chemotherapy-treated vs control) [1]: >10 fold
- Fold change LIF (chemotherapy-treated vs control) [1]: >10 fold
- Fold change LIX (chemotherapy-treated vs control) [1]: >10 fold
- Fold change LRP-6 (chemotherapy-treated vs control) [1]: >10 fold
- Fold change Lungkine (chemotherapy-treated vs control) [1]: 2.0 fold
- Fold change Lymphotoxin beta R/TNFRSF3 (chemotherapy-treated vs control) [1]: 1.6 fold
- Fold change M-CSF (chemotherapy-treated vs control) [1]: 1.8 fold
- Fold change MAdCAM-1 (chemotherapy-treated vs control) [1]: >10 fold
- Fold change MCP-1 (chemotherapy-treated vs control) [1]: >10 fold
- Fold change MIP-1 gamma (chemotherapy-treated vs control) [1]: >10 fold
- Fold change MIP-2 (chemotherapy-treated vs control) [1]: 3.1 fold
- Fold change MMP-9 (chemotherapy-treated vs control) [1]: 4.3 fold
- Fold change P-Selectin (chemotherapy-treated vs control) [1]: >10 fold
- Fold change PF-4 (chemotherapy-treated vs control) [1]: 3.6 fold
- Fold change Prolactin (chemotherapy-treated vs control) [1]: 4.1 fold
- Fold change SDF-1 (chemotherapy-treated vs control) [1]: >10 fold
- Fold change Soggy-1 (chemotherapy-treated vs control) [1]: 3.6 fold
- Fold change TACI/TNFRSF13B (chemotherapy-treated vs control) [1]: >10 fold
- Fold change TARC (chemotherapy-treated vs control) [1]: >10 fold
- Fold change TCA-3 (chemotherapy-treated vs control) [1]: 3.0 fold
- Fold change TGF-beta 2 (chemotherapy-treated vs control) [1]: 3.4 fold
- Fold change TGF-beta RII (chemotherapy-treated vs control) [1]: 2.2 fold
- Fold change TNF-alpha (chemotherapy-treated vs control) [1]: 2.8 fold
- Fold change TNF-beta/TNFSF1B (chemotherapy-treated vs control) [1]: 2.9 fold
- Fold change TPO (chemotherapy-treated vs control) [1]: >10 fold
- Fold change TWEAK R/TNFRSF12 (chemotherapy-treated vs control) [1]: >10 fold
- Fold change Thrombospondin (chemotherapy-treated vs control) [1]: >10 fold
- Fold change Thymus Chemokine-1 (chemotherapy-treated vs control) [1]: >10 fold
- Fold change VEGFC (chemotherapy-treated vs control) [1]: >10 fold
- Fold change WISP-1/CCN4 (chemotherapy-treated vs control) [1]: 3.7 fold

SMILES: COc1cccc2c1C(=O)c1c(O)c3c(c(O)c1C2=O)C[C@@](O)(C(=O)CO)C[C@@H]3O[C@H]1C[C@H](N)[C@H](O)[C@H](C)O1 [DOX, doxorubicin]
- increase of plasma level of IL-6 compared to control [2]: 22 fold

— patent US12070489B2, “Method of treating cancer with a cancer therapy in combination with another therapeutic agent” (Rappaport Family Institute for Research in the Medical …, priority 2018, dated 2024)
